Values joined by “and” are separate entries in the source; they are usually repeats but may differ in a detail not shown here. Equal entries are not always repeated. No end group written: not given here.
Key:
[1] = system: PHKs; assay: CXCL8 expression in PHKs (qRT-PCR, normalized to actin); format: cell-based, human; conditions: for CXCL8 expression normalized to actin / CXCL8 induction by S. epidermidis CM with added peptide: PHKs; for CXCL8 expression normalized to actin / CXCL8 induction by S. epidermidis CM with added peptide / induction of CXCL8 expression in PHKs: 5 h; for induction of CXCL8 expression in PHKs: single treatment, 2 µM human AMPs or lugdunin, 0.8 µM (pro)-gallidermin or nisin
Protocol: Fig. 1 Lugdunin sensitizes epithelial cells for innate immune defense. a Primary human keratinocytes (PHKs) were pretreated with S. epidermidis conditioned medium (CM), indicated lugdunin concentrations, or the combination of both for 20 h. Subsequently, cells were infected with S. aureus for 1.5 h followed by cell lysis and determination of colony-forming units (CFUs). Shown is one representative experiment of three independent experiments with six technical replicates ± s.e.m. n.s., not significant. b Dorsal skin of mice was pretreated with S. epidermidis CM, 1.5 µg lugdunin alone or in combination with S. epidermidis CM for 24 h. Subsequently, S. aureus CFUs were determined. Horizontal lines represent the mean of each group ± s.e.m. c PHKs were treated with 2 μM lugdunin or with S. epidermidis CM alone or in combination for 20 h and subsequently expression of indicated antimicrobial peptides (AMPs) (respective protein names in brackets) was analyzed and normalized to actin. Shown is one representative experiment of three independent experiments with two technical replicates ± s.e.m. d PHKs were treated with 2 µM lugdunin or 100 ng/mL Pam2Cys for 5 h and subsequently the concentration of indicated cytokines in the supernatant was analyzed by LEGENDplex^TM (BioLegend). Shown is one representative experiment of three independent experiments with two technical replicates ± s.e.m. e PHKs were treated with increasing concentrations of lugdunin or 100 ng/mL Pam2Cys or Pam3Cys for 5 h and subsequently expression of chemokine (C-X-C motif) ligand 8 (CXCL8) was analyzed and normalized to actin. Shown is one representative experiment of three independent experiments, each with two technical replicates ± s.e.m. f, g Indicated cells were treated with 2 µM lugdunin or 100 ng/mL Pam2Cys as a positive control for 5 h and subsequently the concentration of CXCL8 (f) and interleukin-1α (IL-1α) (g) in the supernatant was analyzed by LEGENDplex^TM (BioLegend) and enzyme-linked immunosorbent assay (ELISA) (R&D Systems). Shown is one representative experiment of three independent experiments with two technical replicates ± s.e.m. Significant differences to control treatments were analyzed by ordinary one-way analysis of variance (ANOVA) followed by Dunnett’s multiple comparisons test (*P < 0.05; **P < 0.01; ***P < 0.001; ****P < 0.0001). n.d. = not detected. Source data are provided as a Source Data file
Fig. 4 Lugdunin amplifies the commensal-induced chemokine (C-X-C motif) ligand (CXCL8) induction. a Primary human keratinocytes (PHKs) were either treated with 2 μM of human antimicrobial peptides (AMPs) (black bars) or lugdunin (blue bars), or 0.8 μM (pro)-gallidermin or nisin (black bars), or in combination with S. epidermidis conditioned medium (CM) (gray and red striped bars) for 5 h, and subsequently expression of CXCL8 was analyzed and normalized to actin. Shown is one representative experiment of three independent experiments with two technical replicates ± s.e.m. b PHKs were treated with 2 μM human AMPs, 2 μM lugdunin, 0.8 μM of the other bacteriocins (gray bars) or the correspondent peptide combinations (white bars), or 50 ng/mL Pam2Cys, 10 ng/mL IL-1α, or S. epidermidis CM as controls (black bars), for 5 h and subsequently expression of CXCL8 was analyzed and normalized to actin. Shown is one representative experiment of three independent experiments with two technical replicates ± s.e.m. Significant differences to control treatments were analyzed by ordinary one-way analysis of variance (ANOVA) followed by Dunnett’s multiple comparisons test (***P < 0.001; ****P < 0.0001). Source data are provided as a Source Data file
After 5 h or 20 h of peptide treatment, PHKs were washed once with PBS, followed by the addition of RNA lysis buffer directly into the well. Total RNA was extracted using the Nucleospin RNA Kit (Macherey-Nagel) according to the manufacturer’s protocol. […]

[2] = system: E. coli; assay: Antimicrobial testing (CFU) against E. coli; format: cell-based, Escherichia coli; conditions: 3 h, mean
[3] = system: S. epidermidis; assay: Antimicrobial testing (CFU) against S. epidermidis; format: cell-based, Staphylococcus epidermidis; conditions: 3 h, mean
Protocol: (§1) For bactericidal testing, logarithmically growing staphylococci were resuspended in PBS (Sigma) containing 0.1% TSB (Carl Roth) and colony-forming unit (CFU) was adjusted to 3 × 10^6 CFU/mL. Different concentrations of single peptides and their combinations were diluted in PBS containing 0.1% TSB and incubated with bacteria in triplicates for 3 h at 37 °C and 150 rpm orbital shaking. Subsequently, serial dilutions (10^–1–10^–4) of the bacterial suspensions were prepared in PBS and 20 µL of each dilution was spotted in duplicates onto TSB plates and incubated at 37 °C overnight. The next day, the number of CFU was analyzed and the percentage of viable bacteria was determined by normalizing to the untreated control (100%). Results are illustrated in a S. aureus killing curve. In each experiment, negative control replicates (PBS + 0.1% TSB) as well as sterility control replicates were included.
(§2) Supplementary Figure 7: Efficiency of Lugdunin and DCD -1(L) combinations in 107 […]
(§3) logarithmically grown bacteria were incubated with indicated combinations of 109 lugdunin and DCD-1(L) in PBS containing 0.1% TSB at 37 °C orbital shaking. After 3 110 hours of incubation several dilutions of the bacterial suspensions were plated onto TSB 111 agar pl ates and incubated over night at 37 °C. The next day bacterial CFU were 112 counted. Each experiment was performed in triplicates. Data represent the mean 113 percentage of CFU normalized to the untreated control. Data represent the mean of at 114 least three independent experiments. 115
(§4) (1 picture or pasted object on this page, not shown here)

[4] = system: E. faecalis; assay: Antimicrobial testing (CFU) against E. faecalis; format: cell-based, Enterococcus faecalis; conditions: 3 h, mean
[5] = system: P. mirabilis; assay: Antimicrobial testing (CFU) against P. mirabilis; format: cell-based, Proteus mirabilis; conditions: 3 h, mean
Protocol: as §1, §2, §3, §4

[6] = system: B. subtilis; assay: Antimicrobial testing (CFU) against B. subtilis; format: cell-based, Bacillus subtilis; conditions: for B. subtilis CFU normalized to untreated control (1,00): 3 h, mean
Protocol: as §1, §2, §3, §4

[7] = system: P. aeruginosa; assay: Antimicrobial testing (CFU) against P. aeruginosa; format: cell-based, Pseudomonas aeruginosa; conditions: 3 h
[8] = 2 µM human AMPs, 2 µM lugdunin, 0.8 µM other bacteriocins or their combinations, 50 ng/mL Pam2Cys, 10 ng/mL IL-1α, S. epidermidis CM, two technical replicates, Fig 4b
[9] = peptide (2 µM human AMPs or lugdunin, 0.8 µM gallidermin or nisin) in combination with S. epidermidis CM, two technical replicates, Fig 4a
[10] = single treatment: 2 µM human AMPs or lugdunin, 0.8 µM (pro)-gallidermin or nisin, or S. epidermidis CM, M = 1, two technical replicates (rows), Fig 4a
[11] = single peptide 1 µM, PBS + 0.1% TSB, 37 °C, mean of at least three experiments

Substance | CXCL8 expression normalized to actin [1, 8] | CXCL8 expression normalized to actin [1, 9] | CXCL8 induction by S. epidermidis CM with added peptide ([1]; Fig 4a) | induction of CXCL8 expression in PHKs ([1]; S. epidermidis CM, Fig 4a) | E. coli CFU normalized to untreated control (1,00) ([2]; single peptide 1 µM) | E. coli CFU normalized to untreated control (1,00) ([2]; single peptide 2 µM) | S. epidermidis CFU normalized to untreated control (1,00) ([3]; single peptide 1 µM) | S. epidermidis CFU normalized to untreated control (1,00) ([3]; single peptide 2 µM) | E. faecalis CFU normalized to untreated control (1,00) ([4]; single peptide 1 µM) | E. faecalis CFU normalized to untreated control (1,00) ([4]; single peptide 2 µM) | P. mirabilis CFU normalized to untreated control (1,00) ([5]; single peptide 1 µM) | P. mirabilis CFU normalized to untreated control (1,00) ([5]; single peptide 2 µM) | CXCL8 expression normalized to actin [1, 10] | B. subtilis CFU normalized to untreated control (1,00) ([6]; single peptide 1 µM) | B. subtilis CFU normalized to untreated control (1,00) ([6]; single peptide 2 µM) | P. aeruginosa CFU normalized to untreated control (1,00) [7, 11] | P. aeruginosa CFU normalized to untreated control (1,00) ([7]; single peptide 2 µM, mean) | other results
IASKFLCTPGCAKTGSFNSYCC (also: bicyclic or more (positions not given here)) [Gallidermin, bacteriocin isolated from Staphylococcus gallinarum] | 3.22 and 3.395 | 2.713 and 2.789 | completely blocked | not able to induce CXCL8 expression | – | – | – | – | – | – | – | – | – | – | – | – | – | –
ITSISLCTPGCKTGALMGCNMKTATCHCSIHVSK (not fully specified (bridges); also: lanthionine rings, places not given here) [Nisin, bacteriocin of Lactococcus lactis, purchased from Sigma] | 3.325 and 3.22 | 88.3403 and 93.3773 | non-significant increase | not able to induce CXCL8 expression | – | – | – | – | – | – | – | – | – | – | – | – | – | –
LLGDFFRKSKEKIGKEFKRIVQRIKDFLRNLVPRTES [LL-37, human cathelicidin AMP] | 1.54 and 1.645 | 38.5859 and 33.1285 | – | not able to induce CXCL8 expression | – | – | – | – | – | – | – | – | – | – | – | – | – | –
Lugdunin | 43.47 and 44.695 | 1093.7 and 1265.07 | over 1000 fold | over 40 fold | 1,05 | 1,34 | 1,08 | 0,86 | 1,21 | 1,27 | 1,13 | 0,84 | 44.695 and 43.47 | 0,81 | 0,60 | 1,34 | 1,01 | E. coli CFU normalized to untreated control (1,00) ([2]; single peptide 3 µM): 1,27; S. epidermidis CFU normalized to untreated control (1,00) ([3]; single peptide 3 µM): 1,20; E. faecalis CFU normalized to untreated control (1,00) ([4]; single peptide 3 µM): 0,99; P. mirabilis CFU normalized to untreated control (1,00) ([5]; single peptide 3 µM): 0,98; CXCL8 expression normalized to actin ([1]; lugdunin 0.5 µM, medium = 1, technical replicates, Fig 1e): 1.93 and 1.44 and 0.406 and 0.518; CXCL8 expression normalized to actin ([1]; lugdunin 1 µM, technical replicates, Fig 1e): 10.23 and 9.29 and 0.973 and 1.087; CXCL8 expression normalized to actin ([1]; lugdunin 2 µM, technical replicates, Fig 1e): 43.4456 and 47.5424 and 22.549 and 29.548; CXCL8 expression normalized to actin ([1]; lugdunin 3 µM, technical replicates, Fig 1e): 64.669 and 66.487; CXCL8 expression normalized to actin ([1]; lugdunin 5 µM, technical replicates, Fig 1e): 11.7628 and 11.128; CXCL8 expression normalized to actin ([1]; lugdunin 10 µM, technical replicates, Fig 1e): 2.0508 and 6.298; lugdunin concentrations that induced expression and release of CXCL8 in PHKs ([1]; higher concentrations did not induce CXCL8 production, text to Fig 1d, e): up to 3 µM; B. subtilis CFU normalized to untreated control (1,00) ([6]; single peptide 3 µM): 0,44; susceptibility of B. subtilis (in words) ([6]; text to Supp Fig 7): susceptible; P. aeruginosa CFU normalized to untreated control (1,00) ([7]; single peptide 3 µM, mean): 1,41
MEAVKEKNELFDLDVKVNAKESNDSGAEPRIASKFLCTPGCAKTGSFNSYCC [Pro-Gallidermin, non-bactericidal pro-form of gallidermin] | 3.465 and 3.43 | – | – | – | – | – | – | – | – | – | – | – | – | – | – | – | – | –
SSLLEKGLDGAKKAVGGLGKLGKDAVEDLESVGKGAVHDVKDVLDSV [DCD-1, dermcidin-derived human AMP of eccrine sweat glands] | 13.37 and 13.02 | 61.3666 and 64.6468 | – | 10 fold | 1,31 | 1,87 | 1,51 | 0,94 | 1,48 | 1,58 | 1,05 | 0,98 | 13.02 and 13.37 | 1,14 | 1,04 | 0,93 | 1,21 | –
